Experimental data reported in patent US7678794B2, “Potentiators of glutamate receptors” (Eli Lilly and Company, priority 2004, dated 2010).

Molecular target: T1, human CysLT1 receptor (Homo sapiens, UniProt Q9Y271)
T1 construct: expressed in transfected cells; host or cells: AV12-664 (ATCC-9595)
T1 sequence (Q9Y271 1-337): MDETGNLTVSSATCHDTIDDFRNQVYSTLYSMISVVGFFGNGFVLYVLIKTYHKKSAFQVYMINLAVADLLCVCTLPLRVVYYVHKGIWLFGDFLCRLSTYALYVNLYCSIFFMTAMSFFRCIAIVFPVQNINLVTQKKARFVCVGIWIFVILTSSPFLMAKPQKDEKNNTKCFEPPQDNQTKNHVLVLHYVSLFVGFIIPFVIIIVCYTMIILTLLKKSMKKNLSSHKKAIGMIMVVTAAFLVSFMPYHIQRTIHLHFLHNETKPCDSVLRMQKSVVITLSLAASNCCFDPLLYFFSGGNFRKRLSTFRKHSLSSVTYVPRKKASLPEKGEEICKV
Assay: Antagonism of LTD4-induced increase in intracellular calcium within a CysLT1 receptor expressing cell line (FLIPR)
Type: cell-based
Settings: AV12-664 cells expressing human CysLT1; 6 nM LTD4; read-out: antagonism of CysLT1 receptors, IC50
Text: Antagonism of Cysteinyl-leukotriene D4 (LTD4)—Induced Increase in Intracellular Calcium within a Cysteinyl-Leukotriene 1 (CysLT1) Receptor Expressing Cell Line
Confluent cultures are passaged weekly. Intracellular calcium levels are monitored in the CysLT1-expressing cells with the addition of LTD4, with or without prior exposure to the compounds being tested as antagonists with a Fluorometric Imaging Plate Reader (FLIPR, Molecular Devices). The following buffer is used throughout as an assay buffer: Hanks Buffered Saline Solution without phenol red (GIBCO), with 10 mM HEPES pH 7.4. Cells that had been plated 48 hours prior at a density of 20-25,000 cells per well in a 96-well plate are loaded with a calcium-sensitive dye for 90 minutes at 25° C. Fluo-3 (2 mM in DMSO, Molecular Probes) is mixed with an equal volume of 10% pluronic acid in DMSO, and diluted to 8 μM in the buffer described above containing 10% fetal bovine serum to make the loading buffer. Following loading of the cells, the buffer is removed and replaced with assay buffer prior to drug addition and monitoring on the FLIPR for several minutes. […] Least squares curve fitting with a four-parameter equation is applied to the resulting dose-% inhibition curve to determine the resulting IC50 values.

IC50 [nM]	SMILES
< 500	CCCc1c(OCc2ccc(NC(=O)Nc3cccc(C(=O)O)c3)cc2)ccc(C(C)=O)c1O [Example 1, 3-{3-[4-(4-acetyl-3-hydroxy-2-propyl-phenoxymethyl)-phenyl]-ureido}-benzoic acid]
< 500	CCCc1c(OCc2ccc(S(=O)(=O)Nc3ccccc3-c3nn[nH]n3)cc2)ccc(C(C)=O)c1O [Example 10, 4-(4-Acetyl-3-hydroxy-2-propyl-phenoxymethyl)-N-[2-(2 H-tetrazol-5-yl)-phenyl]-benzene-sulfonamide]
< 500	CCCc1c(OCc2cccc(S(=O)(=O)Nc3cccc(-c4nn[nH]n4)c3)c2)ccc(C(C)=O)c1O [Example 12, 3-(4-Acetyl-3-hydroxy-2-propyl-phenoxymethyl)-N-[3-(2 H-tetrazol-5-yl)-phenyl]-benzene-sulfonamide]
< 500	CCCc1c(OCc2cccc(S(=O)(=O)Nc3ccccc3-c3nn[nH]n3)c2)ccc(C(C)=O)c1O [Example 13, 3-(4-Acetyl-3-hydroxy-2-propyl-phenoxymethyl)-N-[2-(2 H-tetrazol-5-yl)-phenyl]-benzene-sulfonamide]
